Experimental data as given in patent publication US7105492B2, “Camptothecin derivatives having antitumor activity” (priority 1999, dated 2006).
pIC50: −log10 of the molar value. Values joined by “and” are separate entries in the source; they are usually repeats but may differ in a detail not shown here. Equal values may be shown once.

Tests used:
[1] = cited from earlier work; for crossing of the hematoencephalic barrier (in words): in vivo
topoisomerase i = target: T1, topoisomerase i (Homo sapiens, UniProt P11387); test: Persistence of topoisomerase I-mediated DNA cleavage after addition of 0.6 M NaCl; format: biochemical; settings: for Reversibility / persistence of the DNA cleavages (in words): after sodium chloride (0.6 M), about 10 minutes; for PERSISTENCE (%) of DNA cleavage on selected sites: drug 10 μm, 20 minutes incubation, then sodium chloride (0.6 M), examined after about 10 minutes
T1 sequence (P11387 1-765): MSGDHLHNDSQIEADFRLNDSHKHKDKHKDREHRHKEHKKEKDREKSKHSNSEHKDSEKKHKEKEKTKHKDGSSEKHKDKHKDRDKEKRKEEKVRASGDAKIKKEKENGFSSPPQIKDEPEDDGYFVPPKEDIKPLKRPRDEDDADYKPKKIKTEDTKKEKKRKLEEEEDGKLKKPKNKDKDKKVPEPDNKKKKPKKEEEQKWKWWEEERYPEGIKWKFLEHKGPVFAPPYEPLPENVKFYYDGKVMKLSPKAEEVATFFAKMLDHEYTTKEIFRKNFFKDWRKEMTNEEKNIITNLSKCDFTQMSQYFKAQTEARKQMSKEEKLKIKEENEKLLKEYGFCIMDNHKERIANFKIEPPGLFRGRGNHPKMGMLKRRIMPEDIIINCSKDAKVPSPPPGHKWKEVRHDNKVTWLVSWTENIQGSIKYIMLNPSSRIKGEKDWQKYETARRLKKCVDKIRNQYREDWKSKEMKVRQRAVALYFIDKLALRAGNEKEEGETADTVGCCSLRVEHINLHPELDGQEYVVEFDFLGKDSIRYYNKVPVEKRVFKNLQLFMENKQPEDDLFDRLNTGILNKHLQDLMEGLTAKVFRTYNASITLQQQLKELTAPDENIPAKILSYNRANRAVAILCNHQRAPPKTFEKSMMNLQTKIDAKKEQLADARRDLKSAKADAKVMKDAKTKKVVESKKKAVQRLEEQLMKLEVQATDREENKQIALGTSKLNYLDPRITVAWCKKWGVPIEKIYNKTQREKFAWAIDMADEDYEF
Procedure: An important drawback of conventional camptothecins is the reversibility of the their bond in the ternary complex (drug-DNA-enzyme).
After 20 minutes of incubation of the drug in the reaction mixture containing labelled DNA and the purified enzyme, sodium chloride (0.6 M) was added with the scope of assisting the dissociation of the ternary complex.

[2] = test system: MKN-28 human gastric carcinoma; test: ST 1737 per os in athymic nude mice bearing s.c. MKN-28 human gastric carcinoma; format: in vivo; settings: q4d × 4; for TVI % (tumor volume inhibition % in treated over control tumors): at 11–12 day after last treatment
[3] = test system: NCI H460 lung non-small cell carcinoma; test: Antiproliferative activity test (cytotoxic activity) on NCI H460 cells; format: cell-based, human; settings: H-460
Procedure: Cytotoxic activity of the compounds of the present invention was assayed in cell systems of human tumour cells, using the antiproliferative activity test as a method of evaluation of the cytotoxic potential.
The cell line used is a lung non-small cell carcinoma that belongs to non-small cells hystotype named NCI H460.

[4] = Water solubility (remark in Table 4); format: physicochemical
HT29 colon ca = test: Antitumor activity on tumor models: HT29; format: in vivo, mice; settings: HT29, 15 mg/kg
Text: (§1) This broad spectrum of anticancer activity was confirmed in mice transplanted with human tumor xenografts, including NSCLC (H460, A549), prostate ca. (JCA-1), glioblastoma (GBM/7), gastric ca. (MKN28), osteosarcoma (U2OS), ovarian ca. (A2780/Dx, A2780/DDP) and colon (HT29, CoBA) carcinomas as well as in murine lung cancer (M109) and leukaemia model (L1210).

A2780 ovarian ca = test: Antitumor activity on tumor models: A2780; format: in vivo, mice; settings: A2780, 15 mg/kg
Text: as §1

A2780/Dx ovarian ca = test: Antitumor activity on tumor models: A2780/Dx; format: in vivo, mice; settings: A2780/Dx, 15 mg/kg
Text: as §1
The high cytotoxic potency of the compounds of the present invention, herein represented in an exemplary way with one of the preferrred compounds, CPT 184, is also reflected by the potent antitumor activity. […] Moreover, the compounds of the present invention, in particular the CPT 184, were able to induce 100% CR in the A2780/DX tumor characterized by a MDR-phenotype.

U87 glioblastoma = test: Antitumor activity on tumor models: U87; format: in vivo, mice; settings: U87, 15 mg/kg
CoBA colon ca = test: Antitumor activity on tumor models: CoBA; format: in vivo, mice; settings: 15 mg/kg
Text: as §1

lung carcinoma NCI H460 = test: Antitumoral activity in nude mice implanted s.c. with NCI H460 tumour fragments (Table 1); settings: q4d × 4; for Efficacy (TVI %): evaluated 5–10 days after the last treatment
Procedure: For the in vivo studies, the solubilization was carried out in 10% DMSO in bidistilled water, being impossible the solubilization in saline, and the administration for the oral route was carried out at a volume of 10 ml/kg.
Atimic nu/nu Swiss mice (Charles River, Calco, Italia), ageing 10–12 weeks were used. The animals were maintained in laminar flow rooms, according to the guidelines of the United Kingdom Co-ordination Committee Cancer Research. Experimental protocols were approved by the Ethical Committee for animal experimentation of Istituto Nazionale per lo Studio e Cura dei Tumori.
Tumour fragments of about 2×2×2 mm coming from mice to which were inoculated s.c. 10^6 cells NCI H460/topo, were implanted s.c. bilaterally in groups of 5 mice each.
Twice a week, using a Vernier caliper, the width, minimum diameter (l), length and maximum diameter (L) of the tumors were measured, in mm. The tumour volume (mm^3) was calculated according to the formula I^2×L/2. Efficacy of the molecule was evaluated as TVI percent of the treated group versus the control group according to the formula TVI%=100−(T/C×100), wherein T is the mean value of the tumour volume of the treated group and C of control one.

L1210 = murine leukemia = test: Antitumor activity on tumor models: L1210 leukemia, increase in life span; format: in vivo, mice; settings: L1210, 15 mg/kg
Text: as §1

JCA-1 prostate ca = test: Antitumor activity on tumor models: JCA-1; format: in vivo, mice; settings: JCA-1, 15 mg/kg
Text: as §1

A2780/DDP ovarian ca = test: Antitumor activity on tumor models: A2780/DDP; format: in vivo, mice; settings: 15 mg/kg
Text: as §1

GBM/7 glioblastoma = test: Antitumor activity on tumor models: GBM/7; format: in vivo, mice; settings: GBM/7, 15 mg/kg
Text: as §1

IGROV-1 ovarian ca = test: Antitumor activity on tumor models: IGROV-1; format: in vivo, mice; settings: IGROV-1, 15 mg/kg
H460 = NSCLC = test: Antitumor activity on tumor models: H460; format: in vivo, mice; settings: H460, 15 mg/kg
Text: as §1

DU145 prostate ca = test: Antitumor activity on tumor models: DU145; format: in vivo, mice; settings: DU145, 15 mg/kg

## CC[C@@]1(O)C(=O)OCc2c1cc1n(c2=O)Cc2cc3ccccc3nc2-1 [Camptothecin]
[1]
  crossing of the hematoencephalic barrier (in words): does not cross hematoencephalic barrier in significant amount
Topoisomerase i
  Reversibility / persistence of the DNA cleavages (in words): almost complete reversibility of the cleavages
  PERSISTENCE (%) of DNA cleavage on selected sites: 16%

## CC[C@@]1(O)C(=O)OCc2c1cc1n(c2=O)Cc2c-1nc1ccccc1c2C=Nc1ccccc1SSc1ccccc1N [ST 1737, 7–2-(2-aminophenyldithio)phenyliminomethylcamptothecin]
[2]; 4 mg/kg per os
  Tox (Dead/treated mice): 0/4
  TVI % (tumor volume inhibition % in treated over control tumors): 69%
[2]; 7 mg/kg per os
  Tox (Dead/treated mice): 0/4
  TVI % (tumor volume inhibition % in treated over control tumors): 56%
[2]; 12 mg/kg per os
  BWL % (body weight loss % induced by drug treatment): 4%
  Tox (Dead/treated mice): 0/4
  TVI % (tumor volume inhibition % in treated over control tumors): 68%
[3]
  pIC50: 7.77
[4]
  water solubility (in words): (water soluble)

## CC[C@@]1(O)C(=O)OCc2c1cc1n(c2=O)Cc2cc3c(CN(C)C)c(O)ccc3nc2-1 [TPT, Topotecan, reference compound]
HT29 colon ca
  TVI %: 65%
A2780 ovarian ca
  TVI %: 96%
[1]; 10 min after infusion
  in the cerebrospinal fluid with respect to plasma: 30%
[1]; 30 min after infusion
  lactone form hydrolysed to open ring: 50%
[1]
  crossing of the hematoencephalic barrier (in words): crosses hematoencephalic barrier
A2780/Dx ovarian ca
  TVI %: 92%
  no evidence of tumor at the end of the treatment lasting for about 10 days from the last administration: (2/10*)
U87 glioblastoma
  TVI %: 82%
CoBA colon ca
  TVI %: 85%
Lung carcinoma NCI H460; 10 mg/kg p.o.
  Toxicity Lethality: 0/5
  Efficacy (TVI %): 64%
Lung carcinoma NCI H460; 15 mg/kg p.o.
  Toxicity Lethality: 0/4 and 0/5
  Efficacy (TVI %): 94% and 89%
L1210 = murine leukemia
  ILS % = percent increase in life span: 39%
JCA-1 prostate ca
  TVI %: 95%
A2780/DDP ovarian ca
  TVI %: 92%
GBM/7 glioblastoma
  TVI %: 96%
  no evidence of tumor at the end of the treatment lasting for about 10 days from the last administration: (1/10*)
Topoisomerase i
  Reversibility / persistence of the DNA cleavages (in words): almost complete reversibility of the cleavages
  PERSISTENCE (%) of DNA cleavage on selected sites: 16%
IGROV-1 ovarian ca
  TVI %: 89%
H460 = NSCLC
  TVI %: 98%
DU145 prostate ca
  TVI %: 77%
